Laboratory results from patent US12565475B2, “Small molecule compound inhibiting signal transmission path of TLR7 and TLR9 and use thereof” (AJOU UNIVERSITY INDUSTRY-ACADEMIC COOPERATION FOUNDATION, priority 2019, dated 2026).

Target: T1, TLR2/6 (Mus musculus, UniProt Q9EPW9+Q9QUN7)
T1 construct: endogenous in cells; host or cells: RAW 264.7
Test: TLR2/6-mediated TNF-α secretion (FSL-1), ELISA
Assay type: cell-based, murine
Settings: RAW 264.7, 10 or 20 μM
Description: Agonists specific to TLR1/TLR2 (Pam3CSK4), TLR2/TLR6 (FSL-1), TLR3 (Poly I:C), TLR7 (imiquimod), and TLR8 (TL8-506) were purchased from InvivoGen Ltd. (Hong-Kong, China), and a TLR4-specific agonist (LPS from E. coli O111:B4) was purchased from Sigma-Aldrich, Inc. For TLR9-specific stimulation, class C CpG-ODN (ODN2395, 5′-TCGTCGTTTTCGGCGCGCGCCG-3′) having full phosphorothioate backbone modification was synthesized (Bioneer, Inc., Daejeon, Korea). All TLR agonists were dissolved in deionized water and applied to a culture media for TLR activation. The cells were treated with test compounds or a control medium for 1 hour, and then stimulated with a TLR agonist for 4 hours, or 24 hours in the case of poly(I:C), and the cytokine secretion was monitored.
RAW 264.7 or differentiated THP-1 cell lines were seeded onto a 96-well culture plate at a density of 2×10^4 cells/well. The cells were treated with test compounds for 1 hour followed by the stimulation with TLR agonists for 4 hours. The supernatant was transferred to pre-coated assay plates, and the secretion levels of mouse and human TNF-α were measured by respective ELISA kits (Invitrogen, Carlsbad, CA, USA). […] Absorbance was measured by a microplate reader spectrophotometer (Molecular Devices, Inc., San Jose, CA, USA), and data was interpolated from a standard curve using SoftMax Pro 5.3 software (Molecular Devices, Inc.). […]

T1 sequence (Q9QUN7 25-784): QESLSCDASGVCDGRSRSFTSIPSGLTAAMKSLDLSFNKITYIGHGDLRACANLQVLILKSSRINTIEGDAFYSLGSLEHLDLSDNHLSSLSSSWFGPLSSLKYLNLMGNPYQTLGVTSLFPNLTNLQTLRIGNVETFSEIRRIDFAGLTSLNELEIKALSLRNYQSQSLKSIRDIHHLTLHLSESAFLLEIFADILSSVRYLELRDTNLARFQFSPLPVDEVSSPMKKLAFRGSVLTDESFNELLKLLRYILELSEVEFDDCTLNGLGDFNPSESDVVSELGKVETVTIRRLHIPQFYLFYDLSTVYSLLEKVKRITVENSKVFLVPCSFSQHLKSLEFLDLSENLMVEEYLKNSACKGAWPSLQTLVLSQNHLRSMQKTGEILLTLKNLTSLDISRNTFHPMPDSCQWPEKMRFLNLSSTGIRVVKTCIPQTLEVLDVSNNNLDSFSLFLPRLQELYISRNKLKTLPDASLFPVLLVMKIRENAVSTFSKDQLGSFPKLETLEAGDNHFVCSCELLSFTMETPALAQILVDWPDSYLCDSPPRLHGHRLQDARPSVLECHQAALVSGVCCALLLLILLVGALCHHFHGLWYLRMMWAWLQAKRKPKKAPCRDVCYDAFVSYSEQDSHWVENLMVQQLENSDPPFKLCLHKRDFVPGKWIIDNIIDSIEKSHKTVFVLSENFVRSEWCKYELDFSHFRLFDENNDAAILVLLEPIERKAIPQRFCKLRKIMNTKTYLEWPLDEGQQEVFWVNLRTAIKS
T1 sequence (Q9EPW9 28-795): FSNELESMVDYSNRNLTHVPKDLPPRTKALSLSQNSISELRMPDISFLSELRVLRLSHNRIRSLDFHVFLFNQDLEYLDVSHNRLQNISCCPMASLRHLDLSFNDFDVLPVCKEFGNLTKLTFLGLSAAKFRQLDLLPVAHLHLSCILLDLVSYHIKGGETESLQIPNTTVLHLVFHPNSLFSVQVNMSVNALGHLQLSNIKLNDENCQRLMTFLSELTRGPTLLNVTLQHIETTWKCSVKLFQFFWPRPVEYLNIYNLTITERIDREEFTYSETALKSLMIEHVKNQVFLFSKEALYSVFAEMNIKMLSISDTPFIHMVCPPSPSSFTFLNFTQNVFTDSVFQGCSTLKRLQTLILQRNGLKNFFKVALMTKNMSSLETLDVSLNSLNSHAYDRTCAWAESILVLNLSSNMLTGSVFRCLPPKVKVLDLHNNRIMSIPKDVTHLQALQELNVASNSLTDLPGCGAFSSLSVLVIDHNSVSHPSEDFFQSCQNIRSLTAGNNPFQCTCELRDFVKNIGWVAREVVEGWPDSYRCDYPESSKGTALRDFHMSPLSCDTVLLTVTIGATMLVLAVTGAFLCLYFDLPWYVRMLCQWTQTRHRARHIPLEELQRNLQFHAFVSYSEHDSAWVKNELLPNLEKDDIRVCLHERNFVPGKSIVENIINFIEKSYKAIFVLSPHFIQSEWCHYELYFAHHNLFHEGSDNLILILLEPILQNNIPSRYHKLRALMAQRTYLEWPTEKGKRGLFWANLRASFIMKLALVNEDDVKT

## COc1ccc(CNc2ncc(-c3ccc4c(c3)OCO4)n2C)c(OC)c1 [TIC10-7, 5-(2H-1,3-benzodioxol-5-yl)-N-[(2,4-dimethoxyphenyl)methyl]-1-methyl-1H-imidazol-2-amine]
  effect on TLR2/6-mediated cytokine (TNF-α) production: no effect
